According to PubChem BioAssay AID1963971 (Molecular Pharmacology Branch, DTP, NCI, 2024):

Test system: 953936-095-R-J2-PDC spheroids with HUVEC/MSC, viability
Assay: Anticancer human tumor 953936-095-R-J2-PDC patient-derived cervical squamous cell carcinoma cell line growth inhibition [PI3K]
Conditions: for IC50: curve of first compound; for viability, T/C: stronger effect = lower value
In short: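 Agents were dosed from a top concentration near clinical Cmax (otherwise 10 microM) in half-log decrements, alone or combined with PI3K inhibitors. The spheroids contain tumor cells plus endothelial (HUVEC) and MSC stroma; viability is measured.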

[1] = second compound 0.00316 µM, first compound 0.0316 µM
[2] = second compound 0.00316 µM, first compound 0.1 µM
[3] = second compound 0.01 µM, first compound 0.0316 µM
[4] = second compound 0.01 µM, first compound 0.1 µM
[5] = second compound 0.0316 µM, first compound 0.0316 µM
[6] = second compound 0.0316 µM, first compound 0.1 µM
[7] = second compound 0.1 µM, first compound 0.0316 µM
[8] = second compound 0.1 µM, first compound 0.1 µM
[9] = second compound 0.316 µM, first compound 0.0316 µM
[10] = second compound 0.316 µM, first compound 0.1 µM
[11] = second compound 1 µM, first compound 0.0316 µM
[12] = second compound 1 µM, first compound 0.1 µM
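Note: spheroids exposed to compounds for seven days before read-out.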

CC(C)n1nc(-c2ccc3oc(N)nc3c2)c2c(N)ncnc21 + COc1c(OCCCN2CCOCC2)ccc2c3n(c(=NC(=O)c4cnc(N)nc4)nc12)CCN3
IC50 (second compound 0.00316 µM): 0.0189 µM
IC50 (second compound 0.01 µM): 0.0102 µM
IC50 (second compound 0.0316 µM): < 0.000316 µM
IC50 (second compound 0.1 µM): < 0.000316 µM
IC50 (second compound 0.316 µM): < 0.000316 µM
IC50 (second compound 1 µM): < 0.000316 µM
viability, T/C (second compound 0.00316 µM, first compound 0.000316 µM): 79%
viability, T/C (second compound 0.00316 µM, first compound 0.001 µM): 86.9%
viability, T/C (second compound 0.00316 µM, first compound 0.00316 µM): 84%
viability, T/C (second compound 0.00316 µM, first compound 0.01 µM): 60.3%
viability, T/C [1]: 40.3%
viability, T/C [2]: 14.4%
viability, T/C (second compound 0.01 µM, first compound 0.000316 µM): 66.7%
viability, T/C (second compound 0.01 µM, first compound 0.001 µM): 64.8%
viability, T/C (second compound 0.01 µM, first compound 0.00316 µM): 60.1%
viability, T/C (second compound 0.01 µM, first compound 0.01 µM): 51.5%
viability, T/C [3]: 27.8%
viability, T/C [4]: 11.2%
viability, T/C (second compound 0.0316 µM, first compound 0.000316 µM): 38.8%
viability, T/C (second compound 0.0316 µM, first compound 0.001 µM): 36%
viability, T/C (second compound 0.0316 µM, first compound 0.00316 µM): 31.5%
viability, T/C (second compound 0.0316 µM, first compound 0.01 µM): 23.5%
viability, T/C [5]: 16.2%
viability, T/C [6]: 7.15%
viability, T/C (second compound 0.1 µM, first compound 0.000316 µM): 18.2%
viability, T/C (second compound 0.1 µM, first compound 0.001 µM): 15.9%
viability, T/C (second compound 0.1 µM, first compound 0.00316 µM): 14.9%
viability, T/C (second compound 0.1 µM, first compound 0.01 µM): 11.2%
viability, T/C [7]: 8.1%
viability, T/C [8]: 4.33%
viability, T/C (second compound 0.316 µM, first compound 0.000316 µM): 6.68%
viability, T/C (second compound 0.316 µM, first compound 0.001 µM): 6.67%
viability, T/C (second compound 0.316 µM, first compound 0.00316 µM): 5.27%
viability, T/C (second compound 0.316 µM, first compound 0.01 µM): 4.78%
viability, T/C [9]: 3.56%
viability, T/C [10]: 2.2%
viability, T/C (second compound 1 µM, first compound 0.000316 µM): 1.45%
viability, T/C (second compound 1 µM, first compound 0.001 µM): 1.56%
viability, T/C (second compound 1 µM, first compound 0.00316 µM): 1.21%
viability, T/C (second compound 1 µM, first compound 0.01 µM): 1.41%
viability, T/C [11]: 1.36%
viability, T/C [12]: 1.27%

CC1(C)CCC(CN2CCN(c3ccc(C(=O)NS(=O)(=O)c4ccc(NCC5CCOCC5)c([N+](=O)[O-])c4)c(Oc4cnc5[nH]ccc5c4)c3)CC2)=C(c2ccc(Cl)cc2)C1 + COc1c(OCCCN2CCOCC2)ccc2c3n(c(=NC(=O)c4cnc(N)nc4)nc12)CCN3
IC50 (second compound 0.00316 µM): 7.15 µM
IC50 (second compound 0.01 µM): 5.43 µM
IC50 (second compound 0.0316 µM): < 0.0316 µM
IC50 (second compound 0.1 µM): < 0.0316 µM
IC50 (second compound 0.316 µM): < 0.0316 µM
IC50 (second compound 1 µM): < 0.0316 µM
viability, T/C [1]: 82%
viability, T/C [2]: 84.2%
viability, T/C (second compound 0.00316 µM, first compound 0.316 µM): 93.8%
viability, T/C (second compound 0.00316 µM, first compound 1 µM): 96.2%
viability, T/C (second compound 0.00316 µM, first compound 3.16 µM): 97.5%
viability, T/C (second compound 0.00316 µM, first compound 10 µM): 33.2%
viability, T/C [3]: 69.6%
viability, T/C [4]: 78.1%
viability, T/C (second compound 0.01 µM, first compound 0.316 µM): 68%
viability, T/C (second compound 0.01 µM, first compound 1 µM): 74.7%
viability, T/C (second compound 0.01 µM, first compound 3.16 µM): 70.5%
viability, T/C (second compound 0.01 µM, first compound 10 µM): 26.6%
viability, T/C [5]: 42%
viability, T/C [6]: 50%
viability, T/C (second compound 0.0316 µM, first compound 0.316 µM): 41.5%
viability, T/C (second compound 0.0316 µM, first compound 1 µM): 40.1%
viability, T/C (second compound 0.0316 µM, first compound 3.16 µM): 44.1%
viability, T/C (second compound 0.0316 µM, first compound 10 µM): 21.6%
viability, T/C [7]: 18.2%
viability, T/C [8]: 17.8%
viability, T/C (second compound 0.1 µM, first compound 0.316 µM): 18.3%
viability, T/C (second compound 0.1 µM, first compound 1 µM): 17.1%
viability, T/C (second compound 0.1 µM, first compound 3.16 µM): 15.6%
viability, T/C (second compound 0.1 µM, first compound 10 µM): 6.6%
viability, T/C [9]: 6.6%
viability, T/C [10]: 7.22%
viability, T/C (second compound 0.316 µM, first compound 0.316 µM): 7.33%
viability, T/C (second compound 0.316 µM, first compound 1 µM): 5.61%
viability, T/C (second compound 0.316 µM, first compound 3.16 µM): 5.63%
viability, T/C (second compound 0.316 µM, first compound 10 µM): 3.88%
viability, T/C [11]: 1.61%
viability, T/C [12]: 1.39%
viability, T/C (second compound 1 µM, first compound 0.316 µM): 1.49%
viability, T/C (second compound 1 µM, first compound 1 µM): 1.3%
viability, T/C (second compound 1 µM, first compound 3.16 µM): 1.52%
viability, T/C (second compound 1 µM, first compound 10 µM): 0.86%
